Entries after “also recorded” stand apart in the source; their conditions may differ. Read-outs that look alike come from different tables or passages of the source.
Legend:
Estrogen Receptor (ER) [1] = target: T1, Estrogen Receptor (ER) (Homo sapiens, UniProt P03372); assay: htSMT of Halo-ER in U2OS cells (fbound, Dfree); format: cell-based; details: for change in ER fbound: follow-up of selected compounds
T1 construct: expressed in transfected cells
T1 sequence (P03372 1-595): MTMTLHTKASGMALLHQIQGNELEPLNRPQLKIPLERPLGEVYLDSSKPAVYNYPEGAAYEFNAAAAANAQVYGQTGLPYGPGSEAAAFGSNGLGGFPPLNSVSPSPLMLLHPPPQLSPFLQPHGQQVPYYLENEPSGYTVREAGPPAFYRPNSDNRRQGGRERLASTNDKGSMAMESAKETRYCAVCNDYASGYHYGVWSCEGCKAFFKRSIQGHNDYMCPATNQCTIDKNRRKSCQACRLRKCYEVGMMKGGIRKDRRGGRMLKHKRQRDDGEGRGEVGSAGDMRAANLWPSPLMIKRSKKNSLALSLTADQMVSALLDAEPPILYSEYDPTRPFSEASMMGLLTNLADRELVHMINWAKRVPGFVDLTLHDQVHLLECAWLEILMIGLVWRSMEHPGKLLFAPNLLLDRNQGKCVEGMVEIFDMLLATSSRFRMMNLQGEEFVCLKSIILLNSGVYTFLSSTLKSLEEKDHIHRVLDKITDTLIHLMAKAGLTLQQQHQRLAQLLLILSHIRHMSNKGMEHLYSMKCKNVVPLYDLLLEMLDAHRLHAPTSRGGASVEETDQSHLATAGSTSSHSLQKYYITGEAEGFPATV

Estrogen Receptor (ER) [2] = target: T1, Estrogen Receptor (ER); assay: kinetic SMT (kSMT) of ER after compound addition; format: cell-based; details: 100 nM compound
Estrogen Receptor (ER) [3] = target: T1, Estrogen Receptor (ER); assay: residence time imaging of ER-Halo (track length); format: cell-based; details: versus DMSO, 100 nM HSP90 inhibition
androgen receptor (AR) = androgen receptor (AR) (Homo sapiens, UniProt P10275)
[4] = target: T2, glucocorticoid receptor (GR) (Homo sapiens, UniProt P04150); assay: htSMT of Halo-GR in U2OS cells; format: cell-based; details: 1 μM antagonist, singly or with cognate agonist
T2 construct: Because U2OS cells express GR endogenously; endogenous in cells; host or cells: U2OS, CRISPR/Cas9 knock-in at the endogenous NR3C1 locus
T2 sequence (P04150 1-777): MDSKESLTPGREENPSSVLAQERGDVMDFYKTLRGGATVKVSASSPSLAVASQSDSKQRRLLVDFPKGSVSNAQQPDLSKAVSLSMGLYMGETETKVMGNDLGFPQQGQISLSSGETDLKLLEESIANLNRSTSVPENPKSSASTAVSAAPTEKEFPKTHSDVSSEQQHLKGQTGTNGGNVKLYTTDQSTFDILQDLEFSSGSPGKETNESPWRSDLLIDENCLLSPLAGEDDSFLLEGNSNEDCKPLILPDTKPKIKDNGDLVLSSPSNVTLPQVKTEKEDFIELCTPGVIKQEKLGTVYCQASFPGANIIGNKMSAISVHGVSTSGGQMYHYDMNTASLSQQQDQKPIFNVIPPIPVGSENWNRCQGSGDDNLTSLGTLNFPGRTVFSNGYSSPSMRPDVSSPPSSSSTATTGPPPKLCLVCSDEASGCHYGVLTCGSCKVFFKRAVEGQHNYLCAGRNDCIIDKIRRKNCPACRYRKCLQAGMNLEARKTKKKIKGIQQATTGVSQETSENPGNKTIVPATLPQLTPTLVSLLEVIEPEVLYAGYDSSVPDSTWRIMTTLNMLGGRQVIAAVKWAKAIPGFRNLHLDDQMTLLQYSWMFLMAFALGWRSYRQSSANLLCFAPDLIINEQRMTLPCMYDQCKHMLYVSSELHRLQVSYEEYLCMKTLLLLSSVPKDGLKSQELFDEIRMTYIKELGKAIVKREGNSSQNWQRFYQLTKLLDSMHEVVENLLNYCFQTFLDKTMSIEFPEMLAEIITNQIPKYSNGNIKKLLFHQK
Text: Where appropriate, compounds were serially diluted in an Echo Qualified 384-Well Low Dead Volume Source Microplate (0018544, Beckman Coulter) to generate dose-titration source material.

ER = ER (Homo sapiens, UniProt P03372); assay: western blot of ER after 24 hours treatment; format: cell-based; details: 24 hours prior to lysis; MCF7, T47d, U2OS ER-HaloTag
Experimental: Cells were grown in the same conditions as described previously. […] Cells are lysed in 200 μL 1× Cell Lysis Buffer (catalogue number 9803, Cell Signaling). Protein lysate concentration is then determined using BCA protein assay kit (Catalog number 23225, Pierce™ BCA Protein Assay Kit) following manufacturer instructions. Capillary Western Immunoassay were performed using Jess Protein Simple following manufacturer's instruction (protein simple, USA). Levels of αER (1:100, RM-9101) were normalized to loading control β-tubulin (1:100, NC0244815 LI-COR 92642213, Thermo Fisher). The peaks were analyzed with the Compass software (Protein Simple, USA).

Chain of androgen receptor (AR) (P10275 whole entry): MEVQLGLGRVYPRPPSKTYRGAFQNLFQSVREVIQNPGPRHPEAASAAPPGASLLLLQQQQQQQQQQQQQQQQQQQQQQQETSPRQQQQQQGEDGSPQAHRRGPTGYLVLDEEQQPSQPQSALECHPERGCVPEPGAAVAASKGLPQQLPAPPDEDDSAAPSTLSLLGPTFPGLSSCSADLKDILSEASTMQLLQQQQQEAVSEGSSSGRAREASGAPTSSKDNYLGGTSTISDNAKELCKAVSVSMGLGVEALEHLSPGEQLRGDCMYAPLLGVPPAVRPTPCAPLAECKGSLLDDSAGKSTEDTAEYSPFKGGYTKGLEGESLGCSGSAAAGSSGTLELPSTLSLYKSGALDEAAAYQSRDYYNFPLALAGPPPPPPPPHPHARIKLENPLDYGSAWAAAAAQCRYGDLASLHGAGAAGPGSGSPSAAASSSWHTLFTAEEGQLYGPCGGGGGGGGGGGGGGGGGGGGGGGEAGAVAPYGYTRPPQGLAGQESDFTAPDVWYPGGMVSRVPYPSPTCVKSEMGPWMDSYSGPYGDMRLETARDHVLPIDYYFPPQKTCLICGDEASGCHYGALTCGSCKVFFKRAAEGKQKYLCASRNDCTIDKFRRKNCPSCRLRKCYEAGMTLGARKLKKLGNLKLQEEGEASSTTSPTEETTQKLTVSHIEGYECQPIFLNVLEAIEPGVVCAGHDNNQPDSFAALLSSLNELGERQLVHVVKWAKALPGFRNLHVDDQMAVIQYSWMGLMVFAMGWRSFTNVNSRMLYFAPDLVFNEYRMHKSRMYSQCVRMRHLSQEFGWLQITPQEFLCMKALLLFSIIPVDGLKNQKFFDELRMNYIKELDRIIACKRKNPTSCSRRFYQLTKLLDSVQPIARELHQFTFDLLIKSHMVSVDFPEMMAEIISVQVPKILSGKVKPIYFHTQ

| Compound | change in ER fbound (Estrogen Receptor (ER) [1]) | time at which overall effect on fbound reached a plateau (Estrogen Receptor (ER) [2]) | decrease in total number of long binding events (Estrogen Receptor (ER) [3]) | further results |
| --- | --- | --- | --- | --- |
| CC(O)c1cc(C(=O)N[C@@H](C)Cn2ccc(-c3ccc(C#N)c(Cl)c3)n2)[nH]n1 (stereo partly drawn) [Darolutamide] |  |  |  | AR fbound / chromatin binding (androgen receptor (AR)): decrease in chromatin binding |
| 4-hydroxytamoxifen |  |  |  | change in ER fbound in bioactive screen (Estrogen Receptor (ER) [1]): significantly increased fbound; maximal increase in ER fbound (Estrogen Receptor (ER) [1]): lower maximal increases in fbound |
| CN(C)c1ccc(C(c2ccc(N(C)C)cc2)c2cc([N+](=O)[O-])ccc2Cl)cc1 [AL082D06] |  |  |  | GR chromatin binding (fbound) [4]: decrease in chromatin binding |
| C[C@]12CC[C@@H]3c4ccc(O)cc4C[C@@H](CCCCCCCCC[S+]([O-])CCCC(F)(F)C(F)(F)F)[C@H]3[C@@H]1CC[C@@H]2O (stereo partly drawn) [fulvestrant] |  |  |  | change in ER fbound in bioactive screen (Estrogen Receptor (ER) [1]; 1 μM compound versus DMSO): increase in fbound; also recorded: significantly increased fbound; ER degradation (western blot) (ER): degradation of ER |

More lines, main results first:

| change in ER fbound (Estrogen Receptor (ER) [1]) | time at which overall effect on fbound reached a plateau (Estrogen Receptor (ER) [2]) | decrease in total number of long binding events (Estrogen Receptor (ER) [3]) | Compound | further results |
| --- | --- | --- | --- | --- |
| increase in fbound | plateau after an hour | two | COc1cccc(-c2cc(F)ccc2[C@H]2Cc3nc(N)nc(C)c3C(=O)N2)n1 [HSP990] |  |
| increase in fbound | plateau after an hour | four | CC(C)c1cc(-c2n[nH]c(=O)n2-c2ccc3c(ccn3C)c2)c(O)cc1O [ganetespib] |  |

From patent US20250314869A1, “SYSTEMS AND METHODS FOR HIGH THROUGHPUT SINGLE MOLECULE TRACKING IN LIVING CELLS” (EIKON THERAPEUTICS, INC., priority 2022, published 2025)
